Columns and labels:
common bacteria = settings: typical value; cited from earlier work
[1] = Activity of gel-based therapeutics after short-term storage; assay type: physicochemical; settings: 0.5% (agarose) hydrogel
Description: According to Table 1, gel-therapeutic agent preparations comprising an antibiotic and a 0.5% (agarose) hydrogel may be stable for up to one week. Drugs dissolve passively into the gel and stay stable over time. In some embodiments, the gel-therapeutic agent preparation may further comprise saline. The gel may be biocompatible, meaning that it is structurally similar to the extracellular matrix in tissues. The gel may be flowable, allowing, for example, casting into a mold or injection via needle through a port. The loading of the […] agent preparation in the device may allow consistent and uniform contact with the skin even with patient movement, maintaining continuous delivery of the therapeutic agent to the underlying tissue. The gel-therapeutic agent preparation may prevent loss of the therapeutic agent in the event of a minor leak in the adhesive of the sealing portion of the device.

| Molecule | MIC (common bacteria) | Drug activity ([1]; after 3 days storage) [µg/mL] | Drug activity ([1]; after 7 days storage) [µg/mL] |
| --- | --- | --- | --- |
| CN[C@H](CC(C)C)C(=O)N[C@H]1C(=O)N[C@@H](CC(N)=O)C(=O)N[C@H]2C(=O)N[C@H]3C(=O)N[C@H](C(=O)N[C@H](C(=O)O)c4cc(O)cc(O)c4-c4cc3ccc4O)[C@H](O)c3ccc(c(Cl)c3)Oc3cc2cc(c3O[C@@H]2O[C@H](CO)[C@@H](O)[C@H](O)[C@H]2O[C@H]2C[C@](C)(N)[C@H](O)[C@H](C)O2)Oc2ccc(cc2Cl)[C@H]1O [vancomycin] | around 2 micrograms per mL or cm^3 | – | – |
| Gentamicin | around 2 micrograms per mL or cm^3 | 2.41 | 2.04 |

From US20230079448A1, “DEVICES AND METHODS FOR NEGATIVE PRESSURE THERAPY” (APPLIED TISSUE TECHNOLOGIES LLC, priority 2020, published 2023)
